{"source": "patent US20260273028A1", "about": "“PEROXIDASE COMPOSITIONS CONTAINING IMPROVED ENHANCING AGENTS” (FLEN HEALTH PHARMA NV, priority 2022, published 2026)", "format_in_all_cases": "cell-based", "key": {"[1]": {"system": "Staphylococcus aureus ATCC® 6538™", "test": "MBC determination, broth microdilution with CFU enumeration", "details": "S. aureus"}, "[2]": {"system": "Staphylococcus aureus ATCC® 6538™", "test": "Absolute microbial counts in function of enzyme solution concentration", "details": "0.005%-0.0000391% (v/v) GOX+LPO"}, "S. aureus (ATCC®6538™)": {"system": "S. aureus (ATCC®6538™)", "test": "Microbial challenge testing in alginogel with GOX+LPO", "details": "for reduction in absolute S. aureus counts compared to guaiacol in the same concentration: alginogel with GOX+LPO, enhancer 0.0005%; for antimicrobial activity of enhancing candidate only against S. aureus: alginogel without enzymes, highest concentration tested; for reduction in absolute S. aureus counts compared to reference (enzymes only): alginogel, 0.0075% GOX+LPO", "experimental": "(§1) To determine the ability of an antimicrobial agent to elicit an antimicrobial preserving efficacy in a gel environment, a microbiological challenge test can be performed. Here, the antimicrobial agent is a combination of the natural enzymes GOX+LPO. […] Microbial challenge testing was performed according to the method described in the European Pharmacopoeia current version chapter 5.1.3 ‘Efficacy of antimicrobial preservation’, but with adapted time points (0, 10, 20, 30, 40, 50, 60, 70 and 80 min instead of 0, 2, 7, 14 and 28 days). In brief, for every enhancing agent to be evaluated, a lab-scale alginogel (based on the Flaminal® formulation, but without the original enhancer guaiacol) including 0.0075% GOX+LPO (1:1) was prepared according to standard practices. Enhancing agents were added to the alginogel in a final concentration ranging from 0.01 to 0,00025% (v/w). As a reference, an alginogel including 0.0075% GOX+LPO (1:1) without the addition of any enhancing agent was included (designated as: enzymes only). As a control, an alginogel without both GOX+LPO (1:1) enzyme solution and enhancing agent (designated as: empty gel) as well as an alginogel only containing the enhancing agent only (designated as: enhancing candidate only) were included. After preparation, a homogenous sample of 10 g was transferred into a 50 ml conical tube for each alginogel to be evaluated and microorganism to be tested. For each test microorganism, including S. aureus (ATCC®6538™), P. aeruginosa (ATCC®9027™), C. albicans (ATCC®10231™) and A. niger (ATCC®16404 ™), a microbial suspension of about 10^8 CFU/ml was prepared in sterile diluent (buffered sodium chloride-peptone solution). Then, the 50 ml conical tubes containing the alginogel samples to be evaluated were inoculated with 100 μl of the designated inoculum. At the start (time point 0) and after 0, 10, 20, 30, 40, 50, 60, 70 and 80 min, the number of viable microorganisms per gram product (expressed as CFU/g) was determined by transferring a sample of 0.5 g of the product into a 15 ml conical tube containing 4.5 ml of sterile diluent and applying general dilution and plate count techniques. For each combination evaluated, this test was repeated at least 1-3 times. The collected data were further analyzed in MS Excel. Mean absolute counts (expressed as log CFU/g) were visualized in a graph.\nThe purpose of the hereby described experiment was to compare the efficacy of antimicrobial activity enhancement of the GOX+LPO (1:1) enzyme combination by ethanolamine and proline in a microbial challenge test using S. aureus. The test was set up as described in the section on ‘challenge testing’ in Example 2.4. The test was repeated at least 3 times.\nThe purpose of the hereby described experiment was to compare the efficacy of antimicrobial activity of the GOX+LPO (1:1) enzyme combination in the presence of potassium chloride/potassium bromide and potassium iodide. A microbial challenge test using S. aureus was performed. The test was set up as described in the section on ‘challenge testing’ in Example 2.4."}, "A. niger (ATCC®16404 ™)": {"system": "A. niger (ATCC®16404 ™)", "test": "Microbial challenge testing in alginogel with GOX+LPO", "details": "for reduction in absolute A. niger counts compared to guaiacol in the same concentration: alginogel with GOX+LPO, enhancer 0.0005%; for antimicrobial activity of enhancing candidate only against A. niger: alginogel without enzymes, highest concentration tested; for reduction in absolute A. niger counts compared to reference (enzymes only): alginogel, 0.0075% GOX+LPO, enhancer 0,0025-0,0005%", "experimental": "as §1"}, "[3]": {"system": "C. albicans (ATCC®10231™)", "test": "Microbial challenge testing in alginogel with GOX+LPO", "details": "for reduction in absolute C. albicans counts compared to guaiacol in the same concentration: alginogel with GOX+LPO, enhancer 0.0005%; for antimicrobial activity of enhancing candidate only against C. albicans: alginogel without enzymes, highest concentration tested; for reduction in absolute C. albicans counts compared to reference (enzymes only): alginogel, 0.0075% GOX+LPO", "experimental": "as §1"}, "[4]": {"system": "P. aeruginosa (ATCC®9027™)", "test": "Microbial challenge testing in alginogel with GOX+LPO", "details": "for reduction in absolute P. aeruginosa counts compared to guaiacol in the same concentration: alginogel with GOX+LPO, enhancer 0.0005%; for antimicrobial activity of enhancing candidate only against P. aeruginosa: alginogel without enzymes, highest concentration tested; for reduction in absolute P. aeruginosa counts compared to reference (enzymes only): alginogel, 0.0075% GOX+LPO", "experimental": "as §1"}}, "data": [{"smiles": "CC[C@H](C)[C@H](N)C(=O)O", "note": "[Isoleucine, isoleucine]", "values": [{"measurement": "MBC: GOX+LPO enzyme solution needed", "setting": "[1]; enhancer 0.00125%", "value": "0.0000391 % (v/v)"}, {"measurement": "increase in MBC compared to reference", "setting": "[1]; enhancer 0.00125%", "value": 4, "unit": "×"}, {"measurement": "increase in MBC compared to the enhancing molecule guaiacol", "setting": "[1]; enhancer 0.00125%", "value": 2, "unit": "×"}, {"measurement": "MBC: GOX+LPO enzyme solution needed", "setting": "[1]; enhancer 0.005%", "value": "0.0000391 % (v/v)"}, {"measurement": "increase in MBC compared to reference", "setting": "[1]; enhancer 0.005%", "value": 4, "unit": "×"}, {"measurement": "increase in MBC compared to the enhancing molecule guaiacol", "setting": "[1]; enhancer 0.005%", "value": 2, "unit": "×"}, {"measurement": "reduction in absolute S. aureus counts compared to reference and guaiacol solution", "setting": "[2]; enhancer 0.00125%", "value": "stronger reduction"}, {"measurement": "reduction in absolute S. aureus counts compared to reference and guaiacol solution", "setting": "[2]; enhancer 0.005%", "value": "stronger reduction"}, {"measurement": "reduction in absolute S. aureus counts compared to guaiacol in the same concentration", "setting": "S. aureus (ATCC®6538™)", "value": "faster complete reduction"}, {"measurement": "antimicrobial activity of enhancing candidate only against S. aureus", "setting": "S. aureus (ATCC®6538™)", "value": "no antimicrobial activity"}, {"measurement": "reduction in absolute S. aureus counts compared to reference (enzymes only)", "setting": "S. aureus (ATCC®6538™); enhancer 0.00125-0.0005%", "value": "faster complete reduction"}, {"measurement": "reduction in absolute S. aureus counts compared to reference (enzymes only)", "setting": "S. aureus (ATCC®6538™); enhancer 0.0025%", "value": "immediate entire reduction"}, {"measurement": "reduction in absolute A. niger counts compared to guaiacol in the same concentration", "setting": "A. niger (ATCC®16404 ™)", "value": "faster complete reduction"}, {"measurement": "antimicrobial activity of enhancing candidate only against A. niger", "setting": "A. niger (ATCC®16404 ™)", "value": "no antimicrobial activity"}, {"measurement": "reduction in absolute A. niger counts compared to reference (enzymes only)", "setting": "A. niger (ATCC®16404 ™)", "value": "faster complete reduction"}, {"measurement": "reduction in absolute C. albicans counts compared to guaiacol in the same concentration", "setting": "[3]", "value": "faster complete reduction"}, {"measurement": "antimicrobial activity of enhancing candidate only against C. albicans", "setting": "[3]", "value": "no antimicrobial activity"}, {"measurement": "reduction in absolute C. albicans counts compared to reference (enzymes only)", "setting": "[3]; enhancer 0.0025%", "value": "immediate entire reduction"}, {"measurement": "reduction in absolute C. albicans counts compared to reference (enzymes only)", "setting": "[3]; enhancer 0,00125-0,0005%", "value": "faster complete reduction"}, {"measurement": "reduction in absolute P. aeruginosa counts compared to guaiacol in the same concentration", "setting": "[4]", "value": "faster complete reduction"}, {"measurement": "antimicrobial activity of enhancing candidate only against P. aeruginosa", "setting": "[4]", "value": "no antimicrobial activity"}, {"measurement": "reduction in absolute P. aeruginosa counts compared to reference (enzymes only)", "setting": "[4]; enhancer 0.00125-0.0005%", "value": "faster complete reduction"}, {"measurement": "reduction in absolute P. aeruginosa counts compared to reference (enzymes only)", "setting": "[4]; enhancer 0.0025%", "value": "immediate entire reduction"}]}, {"smiles": "N[C@@H](CO)C(=O)O", "note": "[Serine, serine]", "values": [{"measurement": "MBC: GOX+LPO enzyme solution needed", "setting": "[1]; enhancer 0.0025%-0.00125%", "value": "0.0000391 % (v/v)"}, {"measurement": "increase in MBC compared to reference", "setting": "[1]; enhancer 0.0025%-0.00125%", "value": 4, "unit": "×"}, {"measurement": "increase in MBC compared to the enhancing molecule guaiacol", "setting": "[1]; enhancer 0.0025%-0.00125%", "value": 2, "unit": "×"}, {"measurement": "MBC: GOX+LPO enzyme solution needed", "setting": "[1]; enhancer 10%-0.005%", "value": "0.0000391 % (v/v)"}, {"measurement": "increase in MBC compared to reference", "setting": "[1]; enhancer 10%-0.005%", "value": 4, "unit": "×"}, {"measurement": "increase in MBC compared to the enhancing molecule guaiacol", "setting": "[1]; enhancer 10%-0.005%", "value": 2, "unit": "×"}, {"measurement": "reduction in absolute S. aureus counts compared to reference and guaiacol solution", "setting": "[2]; enhancer 0.0025-0.00125%", "value": "stronger reduction"}, {"measurement": "reduction in absolute S. aureus counts compared to reference and guaiacol solution", "setting": "[2]; enhancer 10-0.005%", "value": "stronger reduction"}, {"measurement": "reduction in absolute S. aureus counts compared to guaiacol in the same concentration", "setting": "S. aureus (ATCC®6538™)", "value": "faster complete reduction"}, {"measurement": "antimicrobial activity of enhancing candidate only against S. aureus", "setting": "S. aureus (ATCC®6538™)", "value": "no antimicrobial activity"}, {"measurement": "reduction in absolute S. aureus counts compared to reference (enzymes only)", "setting": "S. aureus (ATCC®6538™); enhancer 0.00125-0.0005%", "value": "faster complete reduction"}, {"measurement": "reduction in absolute S. aureus counts compared to reference (enzymes only)", "setting": "S. aureus (ATCC®6538™); enhancer 0.0025%", "value": "immediate entire reduction"}, {"measurement": "reduction in absolute A. niger counts compared to guaiacol in the same concentration", "setting": "A. niger (ATCC®16404 ™)", "value": "faster complete reduction"}, {"measurement": "antimicrobial activity of enhancing candidate only against A. niger", "setting": "A. niger (ATCC®16404 ™)", "value": "no antimicrobial activity"}, {"measurement": "reduction in absolute A. niger counts compared to reference (enzymes only)", "setting": "A. niger (ATCC®16404 ™)", "value": "faster complete reduction"}, {"measurement": "reduction in absolute C. albicans counts compared to guaiacol in the same concentration", "setting": "[3]", "value": "faster complete reduction"}, {"measurement": "antimicrobial activity of enhancing candidate only against C. albicans", "setting": "[3]", "value": "no antimicrobial activity"}, {"measurement": "reduction in absolute C. albicans counts compared to reference (enzymes only)", "setting": "[3]; enhancer 0.00125%", "value": "faster complete reduction"}, {"measurement": "reduction in absolute C. albicans counts compared to reference (enzymes only)", "setting": "[3]; enhancer 0.0025%", "value": "immediate entire reduction"}, {"measurement": "reduction in absolute P. aeruginosa counts compared to guaiacol in the same concentration", "setting": "[4]", "value": "faster complete reduction"}, {"measurement": "antimicrobial activity of enhancing candidate only against P. aeruginosa", "setting": "[4]", "value": "no antimicrobial activity"}, {"measurement": "reduction in absolute P. aeruginosa counts compared to reference (enzymes only)", "setting": "[4]; enhancer 0.00125-0.0005%", "value": "faster complete reduction"}, {"measurement": "reduction in absolute P. aeruginosa counts compared to reference (enzymes only)", "setting": "[4]; enhancer 0.0025%", "value": "immediate entire reduction"}]}]}
